Reference: publication PMC2763345 (PLoS Pathogens, 2009)
Converted amounts (≈) assume the structure as drawn. Read-outs that look alike come from different tables or passages of the source.

Key:
[1] = test system: M. tuberculosis H37Rv-GFP; assay: microbe, parasite or virus in culture; assay type: cell-based, Mycobacterium tuberculosis; conditions: Mycobacterium tuberculosis, H37RV
[2] = test system: M. tuberculosis H37Rv-GFP in Raw264.7 macrophages; assay: microbe, parasite or virus in culture; assay type: cell-based, Mycobacterium tuberculosis; conditions: for MIC: Mycobacterium tuberculosis, H37RV
Raw264.7 macrophages = conditions: mouse
[3] = test system: M. smegmatis mc2 155 Wild Type; assay: microbe, parasite or virus in culture; assay type: cell-based
BCG Wild Type = assay: microbe, parasite or virus in culture; assay type: cell-based, M. bovis BCG
[4] = read-out: In vitro broth growth MIC (µM)
[5] = read-out: In vitro broth growth MIC (µg/mL)
[6] = 120 h, read-out: Intracellular macrophage growth MIC (µM)
[7] = 120 h, read-out: Intracellular macrophage growth MIC (µg/mL)

COC(=O)c1ccc(O[C@H]2CCN(C(=O)c3cc([N+](=O)[O-])cc([N+](=O)[O-])c3)C2)cc1 [Compound 11-(S)]
MIC ([1]; read-out: MIC Extracellular): 0.08 µM
MIC ([2]; read-out: MIC Intracellular): > 20 µM

COc1ccc(O[C@H]2CCCN(C(=O)c3cc([N+](=O)[O-])cc([N+](=O)[O-])c3)C2)cc1 [Compound 12-(S)]
MIC ([1]; read-out: MIC Extracellular): 6 µM
MIC ([2]; read-out: MIC Intracellular): 20 µM

CC[C@@H](CO)NCCN[C@@H](CC)CO [Ethambutol]
MIC [1, 4]: 4.9 µM
MIC [1, 5]: 1 µg/mL
differences in MIC between the two assays (broth and intracellular) [2]: No major differences
MIC [2, 6]: 4.9 µM
MIC [2, 7]: 1 µg/mL
Intracellular macrophage growth Cell toxicity (Raw264.7 macrophages): >20 µM

CCc1cc(C(N)=S)ccn1 [Ethionamide]
MIC [1, 4]: 6 µM
MIC [1, 5]: 1 µg/mL
differences in MIC between the two assays (broth and intracellular) [2]: No major differences
MIC [2, 6]: 6 µM
MIC [2, 7]: 1 µg/mL
Intracellular macrophage growth Cell toxicity (Raw264.7 macrophages): 120 µM

CC(=O)O[C@H]1C[C@@]2(C)[C@@H](C[C@@H](O)[C@H]3[C@@]4(C)CC[C@@H](O)[C@@H](C)[C@@H]4CC[C@@]32C)/C1=C(\CCC=C(C)C)C(=O)O [Fusidic Acid]
MIC [1, 4]: 1 µM
MIC [1, 5]: 0.5 µg/mL
MIC [2, 6]: 20 µM
MIC [2, 7]: 10 µg/mL
Intracellular macrophage growth Cell toxicity (Raw264.7 macrophages): >20 µM

NNC(=O)c1ccncc1 [Isoniazid]
MIC [1, 4]: 1.2 µM
MIC [1, 5]: 0.16 µg/mL
differences in MIC between the two assays (broth and intracellular) [2]: No major differences
MIC [2, 6]: 1.2 µM
MIC [2, 7]: 0.16 µg/mL
Intracellular macrophage growth Cell toxicity (Raw264.7 macrophages): >150 µM

C[C@H]1COc2c(N3CCN(C)CC3)c(F)cc3c(=O)c(C(=O)O)cn1c23 [Levofloxacin]
MIC [1, 4]: 2.5 µM
MIC [1, 5]: 0.9 µg/mL
MIC [2, 6]: > 20 µM
MIC [2, 7]: > 10 µg/mL
Intracellular macrophage growth Cell toxicity (Raw264.7 macrophages): >20 µM

O=[N+]([O-])c1cn2c(n1)OC[C@@H](OCc1ccc(OC(F)(F)F)cc1)C2 [PA-824]
MIC [1, 4]: 0.22 µM
MIC [1, 5]: 0.08 µg/mL
differences in MIC between the two assays (broth and intracellular) [2]: No major differences
MIC [2, 6]: 0.22 µM
MIC [2, 7]: 0.08 µg/mL
Intracellular macrophage growth Cell toxicity (Raw264.7 macrophages): >20 µM

NC(=O)c1cnccn1 [Pyrazinamide]
MIC [1, 4]: > 150 µM
MIC [1, 5]: > 20 µg/mL
MIC [2, 6]: > 150 µM
MIC [2, 7]: > 20 µg/mL
Intracellular macrophage growth Cell toxicity (Raw264.7 macrophages): >150 µM

CO[C@H]1/C=C/O[C@@]2(C)Oc3c(C)c(O)c4c(c3C2=O)C2=NC3(CCN(CC(C)C)CC3)NC2=C(NC(=O)/C(C)=C\C=C\[C@H](C)[C@H](O)[C@@H](C)[C@@H](O)[C@@H](C)[C@H](OC(C)=O)[C@@H]1C)C4=O [Rifabutin]
MIC [1, 4]: 0.01 µM
MIC [1, 5]: 0.01 µg/mL
MIC [2, 6]: 0.11 µM
MIC [2, 7]: 0.1 µg/mL
Intracellular macrophage growth Cell toxicity (Raw264.7 macrophages): >20 µM

CO[C@H]1/C=C/O[C@@]2(C)Oc3c(C)c(O)c4c(O)c(c(/C=N/N5CCN(C)CC5)c(O)c4c3C2=O)NC(=O)/C(C)=C\C=C\[C@H](C)[C@H](O)[C@@H](C)[C@@H](O)[C@@H](C)[C@H](OC(C)=O)[C@@H]1C [Rifampin]
MIC [1, 4]: 0.01 µM
MIC [1, 5]: 0.01 µg/mL
MIC [2, 6]: 2.9 µM
MIC [2, 7]: 2.4 µg/mL
MIC [3]: 0.31 µg/mL (≈ 0.377 µM)
MIC (BCG Wild Type): 0.31 µg/mL (≈ 0.377 µM)
Intracellular macrophage growth Cell toxicity (Raw264.7 macrophages): 24 µM

[H]/N=C(/N)N[C@H]1[C@H](O)[C@@H](O)[C@H](O[C@@H]2O[C@@H](C)[C@](O)(C=O)[C@H]2O[C@@H]2O[C@@H](CO)[C@H](O)[C@@H](O)[C@@H]2NC)[C@@H](N/C(N)=N\[H])[C@@H]1O [Streptomycin]
MIC [1, 4]: 1.5 µM
MIC [1, 5]: 0.9 µg/mL
MIC [2, 6]: > 35 µM
MIC [2, 7]: > 20 µg/mL
Intracellular macrophage growth Cell toxicity (Raw264.7 macrophages): >35 µM
